Read-outs that look alike come from different tables or passages of the source.
Assays:
spring wheat (TRZAS) = experiment: Postemergence greenhouse trial, % visual injury on spring wheat; assay type: in vivo, Triticum aestivum
Description: (§1) Seeds of the desired test plant species were planted in Sun Gro MetroMix® 306 planting mixture, which typically has a pH of 6.0 to 6.8 and an organic matter content of about 30 percent, in plastic pots with a surface area of 103.2 square centimeters (cm^2). When required to ensure good germination and healthy plants, a fungicide treatment and/or other chemical or physical treatment was applied. The plants were grown for 7-36 days (d) in a greenhouse with an approximate 14-hour (h) photoperiod which was maintained at about 23° C. during the day and 22° C. during the night. Nutrients and water were added on a regular basis and supplemental lighting was provided with overhead metal halide 1000-Watt lamps as necessary. The plants were employed for testing when they reached the second or third true leaf stage.
(§2) Weighed amounts of technical material were dissolved in a volume of 97:3 volume per volume (v/v) acetone/dimethyl sulfoxide (DMSO) to stock solutions. […] The concentrated stock solutions were diluted with an aqueous mixture of 1.5% v/v of Agri-dex crop oil concentrate to provide the appropriate application rates. Compound requirements are based upon a 12 milliliter (mL) application volume at a rate of 187 liters per hectare (L/ha). Stocks solutions of the safeners were prepared following the same procedure. Spray solutions of the safeners and experimental compound mixtures were prepared by adding the stock solutions to the appropriate amount of dilution solution to form a 12 mL spray solution in two-way combinations. Formulated compounds were applied to the plant material with an overhead Mandel track sprayer equipped with 8002E nozzles calibrated to deliver 187 L/ha over an application area of 0.503 square meters (m^2) at a spray height of 18 inches (43 centimeters (cm)) above average plant canopy. Control plants were sprayed in the same manner with the solvent blank. All herbicide application (component a) rates are in g ae/ha and all safener (component b) rates are in g ai/ha.
(§3) The treated plants and control plants were placed in a greenhouse as described above and watered by sub-irrigation to prevent wash-off of the test compounds. After 20-22 d, the condition of the test plants as compared with that of the control plants was determined visually and scored on a scale of 0 to 100 percent where 0 corresponds to no injury and 100 corresponds to complete kill. The condition of the test plants was compared with that of the control plants as determined visually and scored on a scale of 0 to 100 percent, where 0 corresponds to no injury and 100 corresponds to complete kill. Colby's equation was used to determine the herbicidal effects expected from the mixtures.
(§4) The safener cloquintocet-mexyl was combined with compound 1, compound 2, compound 4, compound 5, and compound 6, and applied to corn/maize (ZEAMX) and spring wheat (TRZAS) and the phytotoxicity of the herbicidal compositions was measured. In addition, the efficacy of the herbicidal composition on velvetleaf (ABUTH, Abutilon theophrasti), pigweed (AMARE, Amaranthus retroflexus), winter rape (BRSNW, Brassica napus), lambsquarters (CHEAL, Chenopodium album), thistle (CIRAR, Cirsium arvense), nutsedge (CYPES, Cyperus esculentus), poinsettia (EPHHL, Euphorbia heterophylla), wild buckwheat (POLCO, Polygonum convolvulus), giant foxtail (SETFA, Setaria faberi), and chickweed (STEME, Stellaria media) was evaluated.
(§5) The safener cloquintocet-mexyl was combined with compound 1, compound 2, compound 3, compound 7, compound 8, compound 9, compound 10, compound 11, compound 12, compound 13, compound 14, compound 15, compound 16, compound 17, compound 18, compound 19, and compound 20, and applied to spring wheat (TRZAS), winter wheat (TRZAW), and spring barley (HORVS) and the phytotoxicity of the herbicidal compositions was measured. […]

spring barley (HORVS) = experiment: Postemergence greenhouse trial, % visual injury on spring barley; assay type: in vivo, Hordeum vulgare
Description: as §1, §2, §3, §5

winter rape (BRSNW) = experiment: Postemergence greenhouse trial, % visual injury on winter rape; assay type: in vivo, Brassica napus; details: Brassica napus, post-emergence, BRSNW, read-out: % visual injury, Ob
Description: as §1, §2, §3
as §4, with “evaluated. […]” for “evaluated.”

kochia (KCHSC) = experiment: Postemergence greenhouse trial, % visual injury on kochia; assay type: in vivo, Kochia scoparia; details: Bassia scoparia, post-emergence, read-out: % visual injury, Ob; for pest or weed control at 4.375 g/ha / pest or weed control at 8.75 g/ha / pest or weed control at 17.5 g/ha / pest or weed control at 35 g/ha / pest or weed control at 70 g/ha: KCHSC
Description: as §1, §2
as §3, with “mixtures. […]” for “mixtures.”

common poppy (PAPRH) = experiment: Postemergence greenhouse trial, % visual injury on common poppy; assay type: in vivo, Papaver rhoeas; details: Papaver rhoeas, post-emergence, PAPRH, applied alone, read-out: % visual injury, Ob
Description: as §1, §2
as §3, with “mixtures. […]” for “mixtures.”

pigweed (AMARE) = experiment: Postemergence greenhouse trial, % visual injury on pigweed; assay type: in vivo, Amaranthus retroflexus; details: Amaranthus retroflexus, post-emergence, read-out: % visual injury, Ob
Description: as §1, §2, §3
as §4, with “evaluated. […]” for “evaluated.”
The safener cloquintocet-acid and a number of agriculturally acceptable esters and salts (-mexyl, -dimethylammonium salt and -triethylammonium salt) were combined in varying ratios with compound 1 and applied to spring wheat (TRZAS), winter wheat (TRZAW), and spring barley (HORVS), and the phytotoxicity of the herbicidal compositions was measured. […]

lambsquarters (CHEAL) = experiment: Postemergence greenhouse trial, % visual injury on lambsquarters; assay type: in vivo, Chenopodium album; details: Chenopodium album, post-emergence, read-out: % visual injury, Ob
Description: as §1, §2, §3, §4, §5

prickly lettuce (LACSE) = experiment: Postemergence greenhouse trial, % visual injury on prickly lettuce; assay type: in vivo, Lactuca serriola; details: LACSE, CQC-m 0
Description: as §1, §2
as §3, with “mixtures. […]” for “mixtures.”

wild mustard (SINAR) = experiment: Postemergence greenhouse trial, % visual injury on wild mustard; assay type: in vivo, Sinapis arvensis; details: Brassica, post-emergence, SINAR, CQC-m 0, read-out: % visual injury, Ob
Description: as §1, §2
as §3, with “mixtures. […]” for “mixtures.”

[1] = tested on: bird's-eye speedwell (VERPE); experiment: Postemergence greenhouse trial, % visual injury on bird's-eye speedwell; assay type: in vivo, Veronica persica; details: VERPE, CQC-m 0
Description: as §1, §2
as §3, with “mixtures. […]” for “mixtures.”

[2] = TRZAS, 4.375 g/ha, applied alone
[3] = TRZAS, 8.75 g/ha, applied alone
[4] = TRZAS, 17.5 g/ha, applied alone
[5] = HORVS, 4.375 g/ha, applied alone
[6] = HORVS, 8.75 g/ha, applied alone
[7] = HORVS, 17.5 g/ha, applied alone

`COc1c(N)nc(-c2ccc3sccc3c2)nc1C(=O)O` [compound 19] was tested, and the “% visual injury, Ob” value (spring wheat (TRZAS); [2]) was 0%, the “% visual injury, Ob” value (spring wheat (TRZAS); [3]) was 10% and the “% visual injury, Ob” value (spring wheat (TRZAS); [4]) was 30%. For the same compound, the “% visual injury, Ob” value (spring wheat (TRZAS); TRZAS, 35 g/ha, applied alone) was 40%, the “% visual injury, Ob” value (spring wheat (TRZAS); TRZAS, 70 g/ha, applied alone) was 50% and the “% visual injury, Ob” value (spring barley (HORVS); [5]) was 0%. For the same compound, the “% visual injury, Ob” value (spring barley (HORVS); [6]) was 10%, the “% visual injury, Ob” value (spring barley (HORVS); [7]) was 10% and the “% visual injury, Ob” value (spring barley (HORVS); HORVS, 35 g/ha, applied alone) was 15%. For the same compound, the “% visual injury, Ob” value (spring barley (HORVS); HORVS, 70 g/ha, applied alone) was 35%, the plant injury at 4.375 g/ha (winter rape (BRSNW); 4.375 g/ha, applied alone) was 0% and the plant injury at 8.75 g/ha (winter rape (BRSNW); 8.75 g/ha, applied alone) was 10%. The plant injury at 17.5 g/ha (winter rape (BRSNW); 17.5 g/ha, applied alone) was 20%, the plant injury at 35 g/ha (winter rape (BRSNW); 35 g/ha, applied alone) was 25% and the plant injury at 70 g/ha (winter rape (BRSNW); 70 g/ha, applied alone) was 30%. For the same compound, the pest or weed control at 4.375 g/ha (kochia (KCHSC); applied alone) was 0%, the pest or weed control at 8.75 g/ha (kochia (KCHSC); applied alone) was 0% and the pest or weed control at 17.5 g/ha (kochia (KCHSC); 17.5 g/ha, applied alone) was 0%. It also gave a pest or weed control at 35 g/ha (kochia (KCHSC); 35 g/ha, applied alone) of 10%, a pest or weed control at 70 g/ha (kochia (KCHSC); 70 g/ha, applied alone) of 60% and a pest or weed control at 4.375 g/ha (common poppy (PAPRH)) of 80%. For the same compound, the pest or weed control at 8.75 g/ha (common poppy (PAPRH)) was 80%, the pest or weed control at 17.5 g/ha (common poppy (PAPRH)) was 85% and the pest or weed control at 35 g/ha (common poppy (PAPRH)) was 90%. For the same compound, the pest or weed control at 70 g/ha (common poppy (PAPRH)) was 95%.
For `Nc1c(F)c(-c2ccc3cc[nH]c3c2F)nc(C(=O)[O-])c1Cl.[K+]` [compound 7], the “% visual injury, Ob” value (spring wheat (TRZAS); alone, 20 g/ha) was 10%, the “% visual injury, Ob” value (spring barley (HORVS); alone, 20 g/ha) was 5% and the pest or weed control at 20 g/ha (pigweed (AMARE)) was 88%. It also gave a pest or weed control at 20 g/ha (lambsquarters (CHEAL)) of 90% and a pest or weed control at 20 g/ha (kochia (KCHSC)) of 65%.
In the case of `COC(=O)c1nc(-c2ccc3sccc3c2)c(F)c(N)c1Cl` [compound 18], the “% visual injury, Ob” value (spring wheat (TRZAS); [2]) is reported as 10%, the “% visual injury, Ob” value (spring wheat (TRZAS); [3]) is reported as 25% and the “% visual injury, Ob” value (spring wheat (TRZAS); [4]) is reported as 40%. The “% visual injury, Ob” value (spring wheat (TRZAS); TRZAS, 35 g/ha, applied alone) was 50%, the “% visual injury, Ob” value (spring wheat (TRZAS); TRZAS, 70 g/ha, applied alone) was 70% and the “% visual injury, Ob” value (spring barley (HORVS); [5]) was 15%. The “% visual injury, Ob” value (spring barley (HORVS); [6]) was 25%, the “% visual injury, Ob” value (spring barley (HORVS); [7]) was 40% and the “% visual injury, Ob” value (spring barley (HORVS); HORVS, 35 g/ha, applied alone) was 50%. The “% visual injury, Ob” value (spring barley (HORVS); HORVS, 70 g/ha, applied alone) was 70%, the pest or weed control at 4.375 g/ha (kochia (KCHSC); applied alone) was 30% and the pest or weed control at 8.75 g/ha (kochia (KCHSC); applied alone) was 40%. For the same compound, the pest or weed control at 17.5 g/ha (kochia (KCHSC); 17.5 g/ha, applied alone) was 75%, the pest or weed control at 35 g/ha (kochia (KCHSC); 35 g/ha, applied alone) was 93% and the pest or weed control at 70 g/ha (kochia (KCHSC); 70 g/ha, applied alone) was 90%. It also gave a pest or weed control at 4.375 g/ha (common poppy (PAPRH)) of 90%, a pest or weed control at 8.75 g/ha (common poppy (PAPRH)) of 90% and a pest or weed control at 17.5 g/ha (common poppy (PAPRH)) of 93%. For the same compound, the pest or weed control at 35 g/ha (common poppy (PAPRH)) was 93% and the pest or weed control at 70 g/ha (common poppy (PAPRH)) was 95%.
In the case of `COC(=O)c1nc(-c2ccc3cc[nH]c3c2F)c(F)c(/N=C/N(C)C)c1Cl` [compound 11], the “% visual injury, Ob” value (spring wheat (TRZAS); TRZAS, compound 17.5 g/ha, CQC-m 0) is reported as 10%, the “% visual injury, Ob” value (spring wheat (TRZAS); TRZAS, compound 35 g/ha, CQC-m 0) is reported as 20% and the “% visual injury, Ob” value (spring wheat (TRZAS); TRZAS, compound 70 g/ha, CQC-m 0) is reported as 40%. For the same compound, the “% visual injury, Ob” value (spring barley (HORVS); HORVS, compound 17.5 g/ha, CQC-m 0) was 10%, the “% visual injury, Ob” value (spring barley (HORVS); HORVS, compound 35 g/ha, CQC-m 0) was 20% and the “% visual injury, Ob” value (spring barley (HORVS); HORVS, compound 70 g/ha, CQC-m 0) was 40%. The plant injury at 17.5 g/ha (winter rape (BRSNW); compound 17.5 g/ha, CQC-m 0) was 95%, the plant injury at 35 g/ha (winter rape (BRSNW); compound 35 g/ha, CQC-m 0) was 100% and the plant injury at 70 g/ha (winter rape (BRSNW); compound 70 g/ha, CQC-m 0) was 100%. The pest or weed control at 17.5 g/ha (kochia (KCHSC); compound 17.5 g/ha, CQC-m 0) was 70%, the pest or weed control at 35 g/ha (kochia (KCHSC); compound 35 g/ha, CQC-m 0) was 90% and the pest or weed control at 70 g/ha (kochia (KCHSC); compound 70 g/ha, CQC-m 0) was 90%. For the same compound, the “% visual injury, Ob” value (prickly lettuce (LACSE); compound 17.5 g/ha) was 0%, the “% visual injury, Ob” value (prickly lettuce (LACSE); compound 35 g/ha) was 10% and the “% visual injury, Ob” value (prickly lettuce (LACSE); compound 70 g/ha) was 40%. It also gave a pest or weed control at 17.5 g/ha (wild mustard (SINAR); compound 17.5 g/ha) of 95%, a pest or weed control at 35 g/ha (wild mustard (SINAR); compound 35 g/ha) of 100% and a pest or weed control at 70 g/ha (wild mustard (SINAR); compound 70 g/ha) of 100%. For the same compound, the “% visual injury, Ob” value ([1]; compound 17.5 g/ha) was 85%, the “% visual injury, Ob” value ([1]; compound 35 g/ha) was 90% and the “% visual injury, Ob” value ([1]; compound 70 g/ha) was 95%.

Source: patent publication US9763445B2, “Safened herbicidal compositions comprising a pyridine carboxylic acid herbicide” (Dow AgroSciences, LLC, priority 2014, dated 2017)
